# From ChEMBL document CHEMBL3044672, “N9- and N7-(Chloromethyl Phenymethyl)Chloropurine Derivatives from , '-Dichloroxylenes: Synthesis and Anticancer Activity” (2005)
# How the values were obtained:
# Assay type in all cases: functional
# MCF7 = assay: Cytotoxicity against Homo sapiens (human) MCF7 cells after 48 hr by sulforhodamine B assay; settings: MCF7, 48 h
# M14 = assay: Cytotoxicity against Homo sapiens (human) M14 cells after 48 hr by sulforhodamine B assay; settings: M14, 48 h
# OVCAR-5 = assay: Cytotoxicity against Homo sapiens (human) OVCAR5 cells after 48 hr by sulforhodamine B assay; settings: OVCAR-5, 48 h
# PC-3 = assay: Cytotoxicity against Homo sapiens (human) PC3 cells after 48 hr by sulforhodamine B assay; settings: PC-3, 48 h
# 786-0 = assay: Cytotoxicity against Homo sapiens (human) 786-0 cells after 48 hr by sulforhodamine B assay; settings: 786-0, 48 h
# EKVX = assay: Cytotoxicity against Homo sapiens (human) EKVX cells after 48 hr by sulforhodamine B assay
# NCI-H322M = assay: Cytotoxicity against Homo sapiens (human) NCI-H322M cells after 48 hr by sulforhodamine B assay
# BT-549 = assay: Cytotoxicity against Homo sapiens (human) BT549 cells after 48 hr by sulforhodamine B assay; settings: BT-549, 48 h
# U-251 = assay: Cytotoxicity against Homo sapiens (human) U251 cells after 48 hr by sulforhodamine B assay; settings: U-251, 48 h
# IGROV-1 = assay: Cytotoxicity against Homo sapiens (human) IGROV1 cells after 48 hr by sulforhodamine B assay; settings: IGROV-1, 48 h
# SK-MEL-2 = assay: Cytotoxicity against Homo sapiens (human) SK-MEL-2 cells after 48 hr by sulforhodamine B assay; settings: SK-MEL-2, 48 h
# NCI-H460 = assay: Cytotoxicity against Homo sapiens (human) NCI-H460 cells after 48 hr by sulforhodamine B assay; settings: NCI-H460, 48 h
# OVCAR-3 = assay: Cytotoxicity against Homo sapiens (human) OVCAR3 cells after 48 hr by sulforhodamine B assay; settings: OVCAR-3, 48 h
# T47D = assay: Cytotoxicity against Homo sapiens (human) T47D cells after 48 hr by sulforhodamine B assay
# DU-145 = assay: Cytotoxicity against Homo sapiens (human) DU145 cells after 48 hr by sulforhodamine B assay; settings: DU-145, 48 h
# SN12C = assay: Cytotoxicity against Homo sapiens (human) SN12C cells after 48 hr by sulforhodamine B assay
# SNB-19 = assay: Cytotoxicity against Homo sapiens (human) SNB19 cells after 48 hr by sulforhodamine B assay; settings: SNB-19, 48 h
# A498 = assay: Cytotoxicity against Homo sapiens (human) A498 cells after 48 hr by sulforhodamine B assay; settings: A498, 48 h
# SW-620 = assay: Cytotoxicity against Homo sapiens (human) SW620 cells after 48 hr by sulforhodamine B assay; settings: SW-620, 48 h
# UO-31 = assay: Cytotoxicity against Homo sapiens (human) UO31 cells after 48 hr by sulforhodamine B assay; settings: UO-31, 48 h
# MDA-MB-435 = assay: Cytotoxicity against Homo sapiens (human) MDA-MB-435 cells after 48 hr by sulforhodamine B assay; settings: MDA-MB-435, 48 h
# HOP-92 = assay: Cytotoxicity against Homo sapiens (human) HOP92 cells after 48 hr by sulforhodamine B assay; settings: HOP-92, 48 h
# SF-295 = assay: Cytotoxicity against Homo sapiens (human) SF295 cells after 48 hr by sulforhodamine B assay; settings: SF-295, 48 h
# NCI-H226 = assay: Cytotoxicity against Homo sapiens (human) NCI-H226 cells after 48 hr by sulforhodamine B assay; settings: NCI-H226, 48 h
# HT-29 = assay: Cytotoxicity against Homo sapiens (human) HT-29 cells after 48 hr by sulforhodamine B assay; settings: HT-29, 48 h
# CAKI-1 = assay: Cytotoxicity against Homo sapiens (human) Caki1 cells after 48 hr by sulforhodamine B assay; settings: CAKI-1, 48 h
# ACHN = assay: Cytotoxicity against Homo sapiens (human) ACHN cells after 48 hr by sulforhodamine B assay
# SF-539 = assay: Cytotoxicity against Homo sapiens (human) SF539 cells after 48 hr by sulforhodamine B assay; settings: SF-539, 48 h
# SK-MEL-28 = assay: Cytotoxicity against Homo sapiens (human) SK-MEL-28 cells after 48 hr by sulforhodamine B assay; settings: SK-MEL-28, 48 h
# OVCAR-8 = assay: Cytotoxicity against Homo sapiens (human) OVCAR8 cells after 48 hr by sulforhodamine B assay; settings: OVCAR-8, 48 h
# SK-MEL-5 = assay: Cytotoxicity against Homo sapiens (human) SK-MEL-5 cells after 48 hr by sulforhodamine B assay; settings: SK-MEL-5, 48 h
# SF-268 = assay: Cytotoxicity against Homo sapiens (human) SF268 cells assessed as cell growth at 10^-4 M after 48 hr by […] assay; settings: SF-268, 48 h, read-out: Activity
# [1] = read-out: LC50 (the source's name)
smiles,measurement,setting,value
ClCc1ccccc1Cn1cnc2ncnc(Cl)c21,GI50,MCF7,3.63 µM
same,LC50 (concentration killing 50% of cells),MCF7,> 100 µM
same,TGI,MCF7,> 100 µM
same,GI50,M14,1.9 µM
same,LC50,M14,27.5 µM
same,TGI,M14,5.12 µM
same,GI50,OVCAR-5,2.81 µM
same,TGI,OVCAR-5,7.24 µM
same,CC50,OVCAR-5; [1],26.9 µM
same,GI50,PC-3,4.46 µM
same,LC50 (concentration causing 50% cell kill),PC-3,74.1 µM
same,TGI,PC-3,19.1 µM
same,GI50,786-0,3.98 µM
same,LC50,786-0,47.9 µM
same,TGI,786-0,12.9 µM
same,GI50,EKVX,5.37 µM
same,TGI,EKVX,17.8 µM
same,CC50,EKVX; [1],45.7 µM
same,GI50,NCI-H322M,4.67 µM
same,TGI,NCI-H322M,15.8 µM
same,CC50,NCI-H322M; [1],40.7 µM
same,GI50,BT-549,2.45 µM
same,LC50 (50% lethal concentration),BT-549,25.1 µM
same,TGI,BT-549,6.02 µM
same,GI50,U-251,1.9 µM
same,LC50 (concentration killing 50% of cells),U-251,10.2 µM
same,TGI,U-251,4.36 µM
same,GI50,IGROV-1,4.26 µM
same,LC50,IGROV-1,> 100 µM
same,TGI,IGROV-1,22.9 µM
same,GI50,SK-MEL-2,4.16 µM
same,LC50 (concentration killing 50% of cells),SK-MEL-2,> 100 µM
same,TGI,SK-MEL-2,19.5 µM
same,GI50,NCI-H460,13.5 µM
same,TGI,NCI-H460,60.2 µM
same,CC50,NCI-H460; [1],> 100 µM
same,GI50,OVCAR-3,2.04 µM
same,LC50,OVCAR-3,8.31 µM
same,TGI,OVCAR-3,4.16 µM
same,GI50,T47D,1.99 µM
same,LC50,T47D,4.26 µM
same,TGI,T47D,4.26 µM
same,GI50,DU-145,2.95 µM
same,LC50,DU-145,33.1 µM
same,TGI,DU-145,10.2 µM
same,GI50,SN12C,2.95 µM
same,LC50 (50% lethal concentration),SN12C,42.6 µM
same,TGI,SN12C,8.51 µM
same,GI50,SNB-19,7.24 µM
same,LC50,SNB-19,> 100 µM
same,TGI,SNB-19,> 100 µM
same,GI50,A498,18.6 µM
same,"LC50 (lethal concentration, 50% cell kill)",A498,57.5 µM
same,TGI,A498,33.1 µM
same,GI50,SW-620,2.23 µM
same,TGI,SW-620,4.67 µM
same,CC50,SW-620; [1],10 µM
same,GI50,UO-31,3.23 µM
same,LC50 (concentration causing 50% net cell kill),UO-31,77.6 µM
same,TGI,UO-31,10.7 µM
same,GI50,MDA-MB-435,1.94 µM
same,LC50,MDA-MB-435,7.58 µM
same,TGI,MDA-MB-435,3.8 µM
same,GI50,HOP-92,4.36 µM
same,TGI,HOP-92,12.9 µM
same,CC50,HOP-92; [1],51.3 µM
same,GI50,SF-295,7.94 µM
same,TGI,SF-295,20.4 µM
same,CC50,SF-295; [1],46.8 µM
same,GI50,NCI-H226,3.38 µM
same,TGI,NCI-H226,7.94 µM
same,CC50,NCI-H226; [1],> 100 µM
same,GI50,HT-29,3.89 µM
same,TGI,HT-29,> 100 µM
same,CC50,HT-29; [1],> 100 µM
same,GI50,CAKI-1,2.34 µM
same,TGI,CAKI-1,4.16 µM
same,CC50,CAKI-1; [1],7.41 µM
same,GI50,ACHN,1.99 µM
same,TGI,ACHN,4.26 µM
same,CC50,ACHN; [1],9.12 µM
same,GI50,SF-539,2.34 µM
same,LC50 (concentration killing 50% of cells),SF-539,12 µM
same,TGI,SF-539,5.01 µM
same,GI50,SK-MEL-28,4.46 µM
same,LC50 (concentration killing 50% of cells),SK-MEL-28,79.4 µM
same,TGI,SK-MEL-28,18.6 µM
same,GI50,OVCAR-8,2.75 µM
same,LC50 (concentration killing 50% of cells),OVCAR-8,58.9 µM
same,TGI,OVCAR-8,8.7 µM
same,GI50,SK-MEL-5,1.38 µM
same,LC50,SK-MEL-5,15.8 µM
same,TGI,SK-MEL-5,4.07 µM
same,growth at 100 µM,SF-268,0%
